# Assay results reported in US20090074766A1, “Methods of inhibiting HIV-2 infection” (priority 2007, published 2009).
# pIC50: −log10 of the molar value.
# Tests used:
# [1] = tested on: HIV-1; conditions: treatment period of 10-14 days, dose-dependent; cited from earlier work
# [2] = single administration of TAK-652 solution (Baba et al., 2005); cited from earlier work
# [3] = tested on: reporter viruses pseudotyped with HIV-1SF162 envelope; format: cell-based; set-up: CI90: unit not given beside the values; conditions: labelled 1st inhibitor with 2nd inhibitor PRO 140; envelope SF162; equimolar (1:10 PRO 140 to zidovudine or nevirapine)
# From the text: A self-inactivating (SIN) vector was derived from the pNL4-3ΔEnv-luciferase vector (Dragic et al. 1996) by deleting 507 basepairs in the U3 region of the 3′ long terminal repeat (LTR) so as to remove the TATA box and transcription factor binding sites. The human cytomegalovirus promoter was inserted upstream of the luciferase (luc) gene to enable expression of luciferase following integration.
# Reporter viruses pseudotyped with HIV-1JR-FL or HIV-1SF162 envelopes were generated by cotransfection of 293T cells with the SIN vector and the appropriate pcDNA env-expressing vector as previously described (Dragic et al. 1996). […] Cultures were incubated for 72 h at 37° C. in DMEM containing 10% fetal bovine serum, 1 mg/mL puromycin, 0.3 mg/mL geneticin, antibiotics, and 0.5% DMSO. Luciferase activity (relative light units or RLU) was measured using BrightGlo reagent (Promega, Madison, Wis.) according to the manufacturer's instructions. Percent inhibition was calculated as: (1−RLU in the presence of inhibitor/RLU in the absence of inhibitor)×100.
# Experimental design and data analysis were based on the combination index (CI) method (Chou et al. 1991; Chou et al. 1984). Compounds were tested individually and in combination at a fixed molar ratio over a range of serial dilutions. […] The mutually exclusive CI formula was used for combinations of CCR5 inhibitors, while the mutually non-exclusive formula was utilized for combinations of inhibitors to distinct targets (Chou et al. 1991). Each test was conducted 4-12 times. Synergy, additivity and antagonism are indicated by CI<1, CI=1 and CI>1, respectively.
# [4] = tested on: reporter viruses pseudotyped with HIV-1JR-FL envelope; format: cell-based; set-up: CI90: unit not given beside the values; conditions: for CI50 / CI90: labelled 1st inhibitor with 2nd inhibitor PRO 140, envelope JRFL, equimolar (1:10 PRO 140 to zidovudine or nevirapine); for inhibition of HIV-1 pseudovirus entry: result in words, data not shown
# From the text: HIV-1 pseudoparticles (HIV-1pp) are generated in 293T cells by transient coexpression of an HIV-1-based NL4/3luc+env− plasmid and a construct encoding HIV-1JRFL Env. The NL4/3luc+env− plasmid was obtained from the NIH AIDS Research and Reference Reagent Program (Cat. No. 3418), and the HIV-1JRFL Env was inserted into the pcDNA3.1 vector (Invitrogen). Briefly, 293T cells are calcium phosphate transfected with a 1:1 ratio of NL4/3luc+env− reporter vector and Env expression vector in Hepes buffer (Profection Mammalian Transfection Kit, Promega). After 16 h the transfection medium is aspirated and fresh cell culture medium (DMEM with 10% FBS, glutamine and antibiotics) is added and the incubation is continued at 37° C. for an additional 24-32 h. Cell culture supernatants are collected 48 h post-transfection and centrifuged at 1,400 rpm for 10 min to pellet cell debris. The viral supernatant is brought to a final concentration of 5% sucrose and stored aliquoted at −80° C.
# U87-CD4-CCR5 cells were obtained from the NIH AIDS Research and Reference Program (Cat. No. 4035). These cells are maintained in culture medium (DMEM with 10% FBS, antibiotics and glutamine) containing 0.3 mg/ml G418 and 0.5 mg/ml puromycin. Cells are grown in T175-cm^2 flasks at 37° C. and diluted 1:5 every 3-4 days. For assay plate preparation, cells are trypsinized and seeded into wells of 96-well tissue-culture treated flat bottom opaque polystyrene plates (Perkin Elmer, Boston, Mass.) at a density of 3×10^3 cells/well. Plates are incubated for no more than 4 h at 37° C. in a humidified 5% CO2 incubator prior to their use in the HIV-1 pp susceptibility assay.
# Fifty μl of diluted compound at 4× the desired final concentration are added per well. For compounds solubilized in DMSO, the 4× stock will contain 2% DMSO (such that the final DMSO concentration in the assay is always 0.5% for small molecules). Control wells receiving no compound are included on each plate. In addition, an AZT inhibition control is included in each assay. Compounds are tested individually and at a fixed mass or molar ratio over a broad range of concentrations.
# A vial of frozen, aliquoted HIV-1pp is thawed in a 37° C. waterbath and then placed on wet ice. Virus is diluted in cold cell culture medium as necessary to achieve the desired final virus concentration in the HIV-1pp assay (about 10,000 relative light units (rlu) per well). 50 μl of diluted virus are added per well, bringing the final well volume to 200 μl. A no-virus control (minimum or background luminescence) and a no-compound control (maximum luminescence) are included on each plate. The plates are incubated for 72 h at 37° C. in a humidified 5% CO2 incubator followed by processing for luciferase signal (see below).
# Assay medium is aspirated and 200 μl of PBS are added to each well. […] Assay plates are then frozen for at least 2 h at −80° C. followed by thawing at room temperature and vigorous mixing with an electronic pipettor. 25 μl from each well are transferred to an opaque 96-well plate (Costar #3922). Four replicates are pooled into the same well on the opaque plate. 100 μl of freshly thawed and reconstituted luciferase substrate (Luciferase Assay System, Promega—Cat. No. E1501) are added to each well of the plate with the electronic pipettor, and luminescence is detected immediately on a Dynex MLX plate reader set to medium gain.
# The percent inhibition is derived as follows: [1−(luciferase activity in the presence of drug/luciferase activity in the absence of drug)]×100. IC50 values are determined by fitting the inhibition data with a non-linear, four-parameter, variable slope equation (GraphPad Prism, ver. 4.02; GraphPad Software, San Diego, Calif.). Upper and lower inhibition values are constrained to 100% and 0%, respectively for curve fitting. […]
# [5] = target: HIV-1JR-FL envelope-mediated membrane fusion (HeLa-EnvJRFL and CEM NKR-CCR5 cells) (Homo sapiens, UniProt P51681); assay: cell-based; conditions: 2D7 in combination with the labelled inhibitor, 1:1 molar ratio
# Description: (§1) The HIV-1 RET assay has been described in detail previously (Litwin et al., 1996). Briefly, fluorescein octadecyl ester (F18; Molecular Probes, Eugene, Oreg.; 5 mg/ml in ethanol), was diluted 1:800 in DMEM labeling medium (DMEM; Invitrogen, Carlsbad, Calif.) with 10% fetal bovine serum (FBS; HyClone, Logan, Utah) and adjusted to an A506 of 0.34±10%. Octadecyl rhodamine B chloride (R18; Molecular Probes; 10 mg/ml in ethanol) was diluted 1:2050 in labeling medium and adjusted to an A565 of 0.52±10%. Both dyes were further diluted 2-fold by addition to cells in T75-cm^2 flasks. HeLa-EnvJRFL and CEM NKR-CCR5 cells were incubated overnight in F18- and R18-containing culture medium, respectively. The following day, medium from HeLa-EnvJRFL cells was removed and 10 ml of 0.5 mM EDTA was added and incubated at 37° C. for 5 min. EDTA was removed and the flask was returned to the incubator for another 5 min followed by striking of the flask to dislodge cells. […] Suspension CEM NKR-CCR5 cells were added directly to a separate 50-ml conical centrifuge tube. Both cell lines were centrifuged at 300×g for 5 min. The supernatant was discarded and cells were resuspended in 10 ml of PBS-/15% FBS. The centrifugation/wash step was repeated twice, after which the cells were counted and concentrations adjusted to 1.5×10^6 cells/ml. Ten μl of each cell type (15,000 cells) were seeded into wells of a 384-well plate. Inhibitor compounds were added immediately thereafter to bring the final well volume to 40 μl, and the plates were incubated for 4 h at 37° C. Compounds were tested individually and in combination at a fixed molar ratio or mass ratio over a range of serial dilutions. The plates were then read on a fluorescence plate reader (Victor^2, Perkin Elmer, Boston, Mass.) using the excitation/emission filter combinations shown in Table 6.
# (§2) The “% RET” was calculated according to the following formula after subtraction of background (blank) readings: […]
# (§3) The “% Inhibition” was calculated according to the following formula: […]
# (§4) Fifty percent inhibition (IC50) values were determined by fitting the inhibition data with a non-linear, four-parameter, variable slope equation (GraphPad Prism, 4.02; GraphPad Software, San Diego, Calif.). Upper and lower inhibition values were constrained to 100% and 0%, respectively for curve fitting.
# (§5) For testing, small molecule compounds were solubilized in dimethylsulfoxide (DMSO) to 10 mM and then diluted in DMSO to 200× the final concentration to be utilized in the antiviral assay. Serial dilutions of small molecules were conducted in DMSO. Subsequent dilutions were conducted in medium to achieve a final DMSO concentration in the assay of 0.5%. Peptides and mAbs were diluted in PBS in the absence of DMSO.
# (§6) HeLa cells were engineered to express HIV-1 gp120/gp41 from the macrophage-tropic primary isolate JRFL as described (HeLa-EnvJRFL; Litwin et al., 1996). Briefly, the HIV-1LAI Env gene was excised from the plasmid pMA243 (Dragic et al., 1992) and the HIV-1JRFL Env gene was inserted. The HIV-1JRFL Env gene was amplified from the plasmid pUCFL112-1 (Koyanagi et al., 1987). The resulting plasmid, designated JR-FL-pMA243, was sequenced by standard methods and transfected into HeLa cells using lipofectin (Gibco BRL/Invitrogen, Carlsbad, Calif.). HeLa-EnvJRFL transfectants were selected in methotrexate (Sigma, St. Louis, Mo.) and cloned twice by limiting dilution. The transduced human T cell leukemia line CEM NKR-CCR5 cells were obtained from the NIH AIDS Research and Reference Program (Cat. No. 458).
# (§7) The HIV-1 RET assay has been described in detail previously (Litwin et al., 1996). Briefly, fluorescein octadecyl ester (F18; Molecular Probes, Eugene, Oreg.; 5 mg/ml in ethanol), was diluted 1:800 in DMEM labeling medium (DMEM; Invitrogen, Carlsbad, Calif.) with 10% fetal bovine serum (FBS; HyClone, Logan, Utah) and adjusted to an A506 of 0.34±10%.
# [6] = in vivo, cited from earlier work
# [7] = tested on: HIV-1JR-FL envelope-mediated membrane fusion (HeLa-EnvJRFL and CEM NKR-CCR5 cells); assay: cell-based; conditions: 1st inhibitor alone (Table 13)
# Description: as §1, §2, §3, §4, §5, §6, §7
# HIV-1JR-FL envelope-mediated membrane fusion (HeLa-EnvJRFL and CEM NKR-CCR5 cells) (Homo sapiens, UniProt P51681), sequence (P51681 whole entry, the tested form may be a part): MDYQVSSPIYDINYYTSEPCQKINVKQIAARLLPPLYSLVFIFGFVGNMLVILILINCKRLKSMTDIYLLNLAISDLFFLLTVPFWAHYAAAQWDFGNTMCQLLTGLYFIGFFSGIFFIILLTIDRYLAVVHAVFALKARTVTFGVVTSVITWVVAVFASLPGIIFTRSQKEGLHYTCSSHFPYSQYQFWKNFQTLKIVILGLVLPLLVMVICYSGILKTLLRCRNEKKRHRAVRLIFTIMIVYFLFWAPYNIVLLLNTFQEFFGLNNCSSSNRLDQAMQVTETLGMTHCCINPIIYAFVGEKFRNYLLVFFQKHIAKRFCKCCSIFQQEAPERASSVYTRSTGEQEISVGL
compound,measurement,setting,value
CCCCN1C(=O)[C@@H]([C@H](O)C2CCCCC2)NC(=O)C12CCN(Cc1ccc(Oc3ccc(C(=O)O)cc3)cc1)CC2 [GW873140],mean reductions in HIV-1 RNA levels,[1],~1 log10
CCO/N=C(\c1ccc(Br)cc1)C1CCN(C2(C)CCN(C(=O)c3c(C)cc[n+]([O-])c3C)CC2)CC1 [SCH-C],mean reductions in HIV-1 RNA levels,[1],~1 log10
CCCCOCCOc1ccc(-c2ccc3c(c2)/C=C(/C(=O)Nc2ccc([S@@+]([O-])Cc4cncn4CCC)cc2)CCCN3CC(C)C)cc1.CS(=O)(=O)O [TAK-652],safety and tolerability,[2],safe and well tolerated
Cc1ccnc2c1NC(=O)c1cccnc1N2C1CC1 [nevirapine],CI50,[3],1.2 ± 0.34
same,CI90,[3],0.63 ± 0.19
same,CI50,[4],1.2 ± 0.38
same,CI90,[4],0.73 ± 0.28
Cc1cn([C@H]2C[C@H](N=[N+]=[N-])[C@@H](CO)O2)c(=O)[nH]c1=O [zidovudine],CI50,[3],0.99 ± 0.27
same,CI90,[3],1.0 ± 0.38
same,CI50,[4],1.1 ± 0.38
same,CI90,[4],0.85 ± 0.26
"RANTES: CC-chemokine, natural peptide ligand of CCR5, purchased from R&D Systems",inhibition of HIV-1 pseudovirus entry,[4],"Neither TAK-779 nor RANTES mediated consistent, high-level inhibition"
same,Mean Dose Reduction (2D7),[5],1.94 ± 0.08
same,Mean Dose Reduction (Cpd in combination),[5],10.18 ± 1.86
TAK-779,inhibition of HIV-1 pseudovirus entry,[4],"Neither TAK-779 nor RANTES mediated consistent, high-level inhibition"
same,oral bioavailability,[6]; po,poor oral bioavailability
same,local tolerability,[6],local injection site irritation
enfuvirtide,pIC50,[7],8.07
same,IC90,[7],66 nM
